# How the values were obtained:
# [1] = target: TYK2 (Homo sapiens (Human), UniProt P29597); test: Tyk2 radioactive kinase assay; assay type: biochemical; conditions: ATP 10 μM
# Summary of the method: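 Recombinant human TYK2 (Invitrogen) was mixed with 20 μM peptide substrate in a buffer of 20 mM Hepes pH 7.5, 10 mM MgCl2, 1 mM EGTA, 0.02% Brij35, 0.02 mg/mL BSA, 0.1 mM […], 2 mM DTT and 1% DMSO, and compounds in DMSO were added. Adding ^33P-ATP (10 μM ATP) started the reaction, which ran 120 min at room temperature. Mixtures were then spotted onto P81 ion-exchange paper, washed thoroughly in 0.75% phosphoric acid, and counted for radioactivity.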
# [2] = target: JAK2 (Homo sapiens (Human), UniProt O60674); test: JAK2 radioactive kinase assay; assay type: biochemical; conditions: ATP 10 μM
# Summary of the method: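 Radiometric assay in Hepes pH 7.5, MgCl2, EGTA, Brij35, BSA, DTT, 1% DMSO, with 10 μM [33P]ATP, 120 min at room temp; P81 paper capture and counting. […]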
# [3] = test system: Tyk2-pSTAT4 (IL-12 induced pSTAT4); test: IL-12 induced pSTAT4 in human PBMC; assay type: cell-based; conditions: 1.7 ng/mL IL-12, 30 minutes
# Summary of the method: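 pSTAT4 and total STAT4 quantified by MSD in cell lysates after 30 minutes of 1.7 ng/mL IL-12 stimulation. Beforehand, compound (0.1% DMSO final) sat 1 hr at 37 C on 200,000 thawed buffy-coat PBMC per well in serum-containing medium.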
# [4] = test system: JAK2-pSTAT5 (GM-CSF induced pSTAT5); test: GM-CSF induced pSTAT5 in human PBMC; assay type: cell-based; conditions: 5 ng/mL GM-CSF
# Summary of the method: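 Thawed human PBMC, 200,000 per well in serum-containing medium, were preincubated 1 hr at 37 C with compound in 0.1% DMSO. GM-CSF at 5 ng/mL final was added for 20 minutes, then pSTAT5 and total STAT5 in lysates were measured by MSD immunoassay.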
# Chain of JAK2 (O60674 whole entry): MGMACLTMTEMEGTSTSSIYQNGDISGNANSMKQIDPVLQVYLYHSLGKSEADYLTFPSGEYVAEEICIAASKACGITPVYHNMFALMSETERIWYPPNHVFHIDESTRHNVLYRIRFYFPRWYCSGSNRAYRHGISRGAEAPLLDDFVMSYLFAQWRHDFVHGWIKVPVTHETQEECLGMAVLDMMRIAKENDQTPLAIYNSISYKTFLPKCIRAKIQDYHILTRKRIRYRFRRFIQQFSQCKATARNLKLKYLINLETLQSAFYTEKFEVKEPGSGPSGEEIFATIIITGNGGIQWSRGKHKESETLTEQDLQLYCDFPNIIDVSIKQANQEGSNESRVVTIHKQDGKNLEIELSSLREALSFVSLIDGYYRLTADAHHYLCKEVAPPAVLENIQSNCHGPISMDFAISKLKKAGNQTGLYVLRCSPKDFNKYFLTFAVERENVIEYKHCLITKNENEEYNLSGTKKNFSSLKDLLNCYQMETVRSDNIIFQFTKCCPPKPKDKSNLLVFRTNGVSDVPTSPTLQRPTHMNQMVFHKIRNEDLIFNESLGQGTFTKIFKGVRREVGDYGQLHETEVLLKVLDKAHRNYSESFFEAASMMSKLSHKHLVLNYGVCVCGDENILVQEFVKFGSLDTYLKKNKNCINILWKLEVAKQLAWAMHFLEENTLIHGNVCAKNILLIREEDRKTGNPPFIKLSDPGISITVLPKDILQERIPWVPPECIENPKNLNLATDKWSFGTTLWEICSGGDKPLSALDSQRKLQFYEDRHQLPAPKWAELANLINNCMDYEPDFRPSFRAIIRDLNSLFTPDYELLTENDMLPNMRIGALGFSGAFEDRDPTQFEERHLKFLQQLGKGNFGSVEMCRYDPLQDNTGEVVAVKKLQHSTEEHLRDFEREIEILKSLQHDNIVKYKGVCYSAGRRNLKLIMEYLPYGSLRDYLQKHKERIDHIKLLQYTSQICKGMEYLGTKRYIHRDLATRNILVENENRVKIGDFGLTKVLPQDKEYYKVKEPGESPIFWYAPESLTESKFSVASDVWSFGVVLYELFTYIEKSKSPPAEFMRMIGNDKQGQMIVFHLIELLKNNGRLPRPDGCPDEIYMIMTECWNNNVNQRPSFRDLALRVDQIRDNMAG
# Chain of TYK2 (P29597 whole entry): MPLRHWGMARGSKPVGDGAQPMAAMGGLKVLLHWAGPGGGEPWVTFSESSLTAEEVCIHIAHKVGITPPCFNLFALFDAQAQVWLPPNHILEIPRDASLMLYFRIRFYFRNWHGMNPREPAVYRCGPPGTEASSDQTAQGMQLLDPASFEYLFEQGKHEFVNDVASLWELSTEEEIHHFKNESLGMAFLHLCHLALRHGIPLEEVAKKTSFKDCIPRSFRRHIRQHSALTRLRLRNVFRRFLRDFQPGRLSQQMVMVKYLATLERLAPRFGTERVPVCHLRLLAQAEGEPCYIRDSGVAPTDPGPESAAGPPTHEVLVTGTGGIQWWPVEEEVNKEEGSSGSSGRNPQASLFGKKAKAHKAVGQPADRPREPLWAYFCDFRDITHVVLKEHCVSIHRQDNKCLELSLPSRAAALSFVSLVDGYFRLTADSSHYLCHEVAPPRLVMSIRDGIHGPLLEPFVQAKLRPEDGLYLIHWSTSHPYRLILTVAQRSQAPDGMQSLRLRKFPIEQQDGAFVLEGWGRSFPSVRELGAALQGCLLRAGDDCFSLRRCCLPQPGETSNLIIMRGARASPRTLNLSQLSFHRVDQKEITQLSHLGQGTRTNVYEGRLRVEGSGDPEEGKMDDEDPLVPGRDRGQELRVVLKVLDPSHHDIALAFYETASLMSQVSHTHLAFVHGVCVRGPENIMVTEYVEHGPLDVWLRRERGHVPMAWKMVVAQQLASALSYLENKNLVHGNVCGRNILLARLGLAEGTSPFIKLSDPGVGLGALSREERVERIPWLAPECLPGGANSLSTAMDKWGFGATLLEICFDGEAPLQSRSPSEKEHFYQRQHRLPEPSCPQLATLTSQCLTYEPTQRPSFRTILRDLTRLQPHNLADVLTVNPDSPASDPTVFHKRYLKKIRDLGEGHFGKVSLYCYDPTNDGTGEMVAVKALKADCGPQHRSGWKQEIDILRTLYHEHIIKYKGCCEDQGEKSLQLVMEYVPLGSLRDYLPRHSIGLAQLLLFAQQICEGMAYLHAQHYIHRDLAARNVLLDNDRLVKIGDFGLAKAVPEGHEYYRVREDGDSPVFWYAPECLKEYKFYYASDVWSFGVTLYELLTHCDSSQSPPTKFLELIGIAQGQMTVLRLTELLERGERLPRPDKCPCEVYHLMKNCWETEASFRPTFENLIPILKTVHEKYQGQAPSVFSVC
SMILES,Ki [1] [nM],Ki [2] [nM],EC50 [3] [nM],EC50 ([4]; 20 minutes) [nM],"EC50 ([3]; Homo sapiens, PBMC, 0.5 h) [nM]","EC50 ([4]; Homo sapiens, PBMC, 20 min) [nM]"
"CO[C@@H]1CCN(c2ccn(-c3cc(-c4c(F)cccc4C#N)nc4c3C(=O)NC4)n2)C[C@H]1O [I-211, 3-fluoro-2-(4-(3-((3R,4R)-3-hydroxy-4-methoxypiperidin-1-yl)-1H-pyrazol-1-yl)-5-oxo-6,7-dihydro-5H-pyrrolo[3,4-b]pyridin-2-yl)benzonitrile]",0.1 to 10,10 to 100,100 to 2000,> 2000,–,–
"N#Cc1cccc(F)c1-c1cc(-n2cc(F)c(N3CC[C@@H](O)C3)n2)c2c(n1)CNC2=O [I-189, (R)-3-fluoro-2-(4-(4-fluoro-3-(3-hydroxypyrrolidin-1-yl)-1H-pyrazol-1-yl)-5-oxo-6,7-dihydro-5H-pyrrolo[3,4-b]pyridin-2-yl)benzonitrile]",0.1 to 10,10 to 100,–,–,100 to 2000,> 2000
"N#Cc1cccc(F)c1-c1cc(-n2ccc(N3CCC[C@@](N)(C(F)(F)F)C3)n2)c2c(n1)CNC2=O [I-118, (S)-2-(4-(3-(3-amino-3-(trifluoromethyl)piperidin-1-yl)-1H-pyrazol-1-yl)-5-oxo-6,7-dihydro-5H-pyrrolo[3,4-b]pyridin-2-yl)-3-fluorobenzonitrile]",0.009 to 0.1,0.1 to 10,–,–,30 to 100,100 to 2000
"CN1CCN(c2ccn(-c3cc(-c4c(F)cccc4C#N)nc4c3C(=O)NC4)n2)CC1 [I-6, 3-fluoro-2-(4-(3-(4-methylpiperazin-1-yl)-1H-pyrazol-1-yl)-5-oxo-6,7-dihydro-5H-pyrrolo[3,4-b]pyridin-2-yl)benzonitrile]",0.1 to 10,0.1 to 10,–,–,100 to 2000,> 2000
"N#Cc1cccc(F)c1-c1cc(-n2ccc([C@H]3CCCO3)n2)c2c(n1)CNC2=O [I-103, (R)-3-fluoro-2-(5-oxo-4-(3-(tetrahydrofuran-2-yl)-1H-pyrazol-1-yl)-6,7-dihydro-5H-pyrrolo[3,4-b]pyridin-2-yl)benzonitrile]",0.1 to 10,10 to 100,–,–,100 to 2000,100 to 2000
"CO[C@@H]1CCN(c2ccn(-c3cc(-c4c(F)cccc4C#N)nc4c3C(=O)NC4)n2)C[C@]1(C)O [I-228, 3-fluoro-2-(4-(3-((3S,4R)-3-hydroxy-4-methoxy-3-methylpiperidin-1-yl)-1H-pyrazol-1-yl)-5-oxo-6,7-dihydro-5H-pyrrolo[3,4-b]pyridin-2-yl)benzonitrile]",0.1 to 10,10 to 100,100 to 2000,100 to 2000,–,–
"N#Cc1cccc(F)c1-c1cc(-n2ccc(N3CCOCC3)n2)c2c(n1)CNC2=O [I-4, 3-fluoro-2-(4-(3-morpholino-1H-pyrazol-1-yl)-5-oxo-6,7-dihydro-5H-pyrrolo[3,4-b]pyridin-2-yl)benzonitrile]",0.1 to 10,10 to 100,–,–,100 to 2000,> 2000
"CN1CCN(C2CCCN(c3ccn(-c4cc(-c5c(F)cccc5C#N)nc5c4C(=O)NC5)n3)C2)CC1 (stereo not drawn) [I-147, 3-fluoro-2-(4-(3-(3-(4-methylpiperazin-1-yl)piperidin-1-yl)-1H-pyrazol-1-yl)-5-oxo-6,7-dihydro-5H-pyrrolo[3,4-b]pyridin-2-yl)benzonitrile]",0.1 to 10,10 to 100,–,–,100 to 2000,100 to 2000
"N#Cc1cccc(F)c1-c1cc(-n2ccc(N3CCOC[C@@H]3CO)n2)c2c(n1)CNC2=O [I-163, (S)-3-fluoro-2-(4-(3-(3-(hydroxymethyl)morpholino)-1H-pyrazol-1-yl)-5-oxo-6,7-dihydro-5H-pyrrolo[3,4-b]pyridin-2-yl)benzonitrile]",0.1 to 10,0.1 to 10,–,–,100 to 2000,100 to 2000
"N#Cc1cccc(F)c1-c1cc(-n2ccc(N3CCC[C@@H](O)[C@@H](O)C3)n2)c2c(n1)CNC2=O [I-179, 2-(4-(3-((3S,4R)-3,4-dihydroxyazepan-1-yl)-1H-pyrazol-1-yl)-5-oxo-6,7-dihydro-5H-pyrrolo[3,4-b]pyridin-2-yl)-3-fluorobenzonitrile]",0.1 to 10,10 to 100,–,–,30 to 100,> 2000
"C[C@]1(O)CCCN(c2ccn(-c3cc(-c4c(F)cccc4C#N)nc4c3C(=O)NC4)n2)C1 [I-72, (S)-3-fluoro-2-(4-(3-(3-hydroxy-3-methylpiperidin-1-yl)-1H-pyrazol-1-yl)-5-oxo-6,7-dihydro-5H-pyrrolo[3,4-b]pyridin-2-yl)benzonitrile]",0.1 to 10,0.1 to 10,–,–,100 to 2000,> 2000
"CC(C)c1ncn(-c2cc(-c3c(F)cccc3C#N)nc3c2C(=O)NC3)n1 [I-232, 3-fluoro-2-(4-(3-isopropyl-1H-1,2,4-triazol-1-yl)-5-oxo-6,7-dihydro-5H-pyrrolo[3,4-b]pyridin-2-yl)benzonitrile]",≥ 1000,≥ 1000,–,–,> 2000,100 to 2000
"CO[C@H]1CCN(c2ccn(-c3cc(-c4c(F)cccc4C#N)nc4c3C(=O)NC4)n2)C[C@@H]1O [I-210, 3-fluoro-2-(4-(3-((3S,4S)-3-hydroxy-4-methoxypiperidin-1-yl)-1H-pyrazol-1-yl)-5-oxo-6,7-dihydro-5H-pyrrolo[3,4-b]pyridin-2-yl)benzonitrile]",0.1 to 10,10 to 100,–,–,30 to 100,100 to 2000
"N#Cc1cccc(F)c1-c1cc(-n2ccc(N3CCC(N4CCOCC4)CC3)n2)c2c(n1)CNC2=O [I-59, 3-fluoro-2-(4-(3-(4-morpholinopiperidin-1-yl)-1H-pyrazol-1-yl)-5-oxo-6,7-dihydro-5H-pyrrolo[3,4-b]pyridin-2-yl)benzonitrile]",0.1 to 10,0.1 to 10,100 to 2000,100 to 2000,–,–
"CN1CCN([C@@H]2CCCN(c3ccn(-c4cc(-c5c(F)cccc5C#N)nc5c4C(=O)NC5)n3)C2)CC1 [I-156, (R)-3-fluoro-2-(4-(3-(3-(4-methylpiperazin-1-yl)piperidin-1-yl)-1H-pyrazol-1-yl)-5-oxo-6,7-dihydro-5H-pyrrolo[3,4-b]pyridin-2-yl)benzonitrile]",0.1 to 10,10 to 100,–,–,100 to 2000,100 to 2000
"C[C@@]1(O)CCN(c2ccn(-c3cc(-c4c(F)cccc4C#N)nc4c3C(=O)NC4)n2)C1 [I-92, (R)-3-fluoro-2-(4-(3-(3-hydroxy-3-methylpyrrolidin-1-yl)-1H-pyrazol-1-yl)-5-oxo-6,7-dihydro-5H-pyrrolo[3,4-b]pyridin-2-yl)benzonitrile]",0.1 to 10,10 to 100,–,–,30 to 100,100 to 2000
"N#Cc1cccc(F)c1-c1cc(-n2ccc(N3CCCC(C(=O)O)C3)n2)c2c(n1)CNC2=O (stereo not drawn) [I-91, 1-(1-(2-(2-cyano-6-fluorophenyl)-5-oxo-6,7-dihydro-5H-pyrrolo[3,4-b]pyridin-4-yl)-1H-pyrazol-3-yl)piperidine-3-carboxylic acid]",0.1 to 10,10 to 100,–,–,100 to 2000,> 2000
"N#Cc1cccc(F)c1-c1cc(-n2ccc(N3CC[C@@H](C#N)[C@H](O)C3)n2)c2c(n1)CNC2=O [I-217, (3S,4S)-1-(1-(2-(2-cyano-6-fluorophenyl)-5-oxo-6,7-dihydro-5H-pyrrolo[3,4-b]pyridin-4-yl)-1H-pyrazol-3-yl)-3-hydroxypiperidine-4-carbonitrile]",0.1 to 10,0.1 to 10,–,–,30 to 100,100 to 2000
"[2H]C1([2H])CC(O)(C([2H])([2H])[2H])C([2H])([2H])N1c1ccn(-c2cc(-c3c(F)cccc3C#N)nc3c2C(=O)NC3)n1 (stereo not drawn) [I-170, 3-fluoro-2-(4-(3-(3-hydroxy-3-(methyl-d3)pyrrolidin-1-yl-2,2,5,5-d4)-1H-pyrazol-1-yl)-5-oxo-6,7-dihydro-5H-pyrrolo[3,4-b]pyridin-2-yl)benzonitrile]",0.1 to 10,0.1 to 10,–,–,30 to 100,> 2000
"C[C@@]1(O)CCCN(c2ccn(-c3cc(-c4c(F)cccc4C#N)nc4c3C(=O)NC4)n2)C1 [I-71, (R)-3-fluoro-2-(4-(3-(3-hydroxy-3-methylpiperidin-1-yl)-1H-pyrazol-1-yl)-5-oxo-6,7-dihydro-5H-pyrrolo[3,4-b]pyridin-2-yl)benzonitrile]",0.009 to 0.1,10 to 100,–,–,30 to 100,100 to 2000
"N#Cc1cccc(F)c1-c1cc(-n2ccc(N3CC[C@]4(CCNC4=O)C3)n2)c2c(n1)CNC2=O [I-165, (R)-3-fluoro-2-(5-oxo-4-(3-(6-oxo-2,7-diazaspiro[4.4]nonan-2-yl)-1H-pyrazol-1-yl)-6,7-dihydro-5H-pyrrolo[3,4-b]pyridin-2-yl)benzonitrile]",0.1 to 10,0.1 to 10,–,–,100 to 2000,100 to 2000

# Reference: patent US10781204B2, “TYK2 inhibitors and uses thereof” (Nimbus Lakshmi, Inc., priority 2015, dated 2020)
